The data set can be described thus: Log P by HPLC on reversed phase columns (EEC directive 79/831 Annex V.A8). The format is physicochemical. To be noted: LogP method [a]; compounds of formula (I), Table 1.1. In a few lines: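 Values come from retention times calibrated against alkan-2-ones (3–16 carbons) by linear interpolation, using reversed-phase LC-UV per EEC directive 79/831 Annex V.A8. Acetonitrile gradient 10–95% with 0.1% formic acid [a], 0.001 M ammonium acetate [b] or 0.1% phosphoric acid [c]; several values within one method separated by "+".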
Turning to `COC(=O)C(NC(=O)c1cc(C#N)c(Br)s1)C1CC1` (stereo not drawn) [1.0402], the LogP is 2.50^[a].
Next, `CCOC(=O)C(NC(=O)c1cc(C#N)c(Br)s1)C(C)C` (stereo not drawn) [1.0403]: 3.22^[a]; `CCOC(=O)C(CCSC)NC(=O)c1cc(C#N)c(Br)s1` (stereo not drawn) [1.0404]: 3.03^[a].
Next, `CCOC(=O)C(Cc1ccccc1)NC(=O)c1cc(C#N)c(Br)s1` (stereo not drawn) [1.0405]: 3.48^[a]; `COC(=O)CNC(=O)c1sc(Br)c(C#N)c1Br` [1.0406]: 2.22^[a].
Regarding `CCOC(=O)CNC(=O)c1sc(Br)c(C#N)c1Br` [1.0407], the LogP was 2.61^[a].
`CCOC(=O)C1(NC(=O)c2sc(Br)c(C#N)c2Br)CC1` [1.0408]: the LogP was 2.71^[a].
Turning to `COC(=O)C(NC(=O)c1sc(Br)c(C#N)c1Br)C1CC1` (stereo not drawn) [1.0409], the LogP is 3.02^[a].
The same measure for `CCOC(=O)C(NC(=O)c1sc(Br)c(C#N)c1Br)C(C)C` (stereo not drawn) [1.0410]: 3.84^[a]; for `CCOC(=O)C(CCSC)NC(=O)c1sc(Br)c(C#N)c1Br` (stereo not drawn) [1.0411]: 3.55^[a].
Next, `CCOC(=O)C(Cc1ccccc1)NC(=O)c1sc(Br)c(C#N)c1Br` (stereo not drawn) [1.0412]: 4.08^[a]; `COC(=O)C(C1CC1)N(O)C(=O)c1sc(Br)c(Br)c1F` (stereo not drawn) [1.0413]: 2.77^[a].
Next, `CCOC(=O)C1(NC(=O)c2sc(Cl)c(Cl)c2C(F)F)CC1` [1.0414]: 3.17^[a]; `COC(=O)CNC(=O)c1sc(Cl)c(Cl)c1C(F)F` [1.0415]: 2.61^[a].
Regarding `CCOC(=O)CNC(=O)c1sc(Cl)c(Cl)c1C(F)F` [1.0416], the LogP was 2.97^[a].
Next, `COC(=O)C(NC(=O)c1sc(Cl)c(Cl)c1C(F)F)C1CC1` (stereo not drawn) [1.0417]: 3.33^[a]; `CCOC(=O)C(NC(=O)c1sc(Cl)c(Cl)c1C(F)F)C(C)C` (stereo not drawn) [1.0418]: 4.13^[a].
Next, `CCOC(=O)C(CCSC)NC(=O)c1sc(Cl)c(Cl)c1C(F)F` (stereo not drawn) [1.0419]: 3.86^[a]; `CCOC(=O)C(Cc1ccccc1)NC(=O)c1sc(Cl)c(Cl)c1C(F)F` (stereo not drawn) [1.0420]: 4.33^[a].
Next, `N#CCNC(=O)c1sc(Br)c(Cl)c1F` [1.0421]: 2.33^[a]; `COC(=O)CNC(=O)c1sc(Br)c(Cl)c1F` [1.0422]: 2.47^[a].
Consider `CCOC(=O)CNC(=O)c1sc(Br)c(Cl)c1F` [1.0423], for which the LogP was 2.92^[a].
The same measure for `COC(=O)C1(NC(=O)c2sc(Br)c(Cl)c2F)CC1` [1.0424]: 2.72^[a]; for `CCOC(=O)C(C)NC(=O)c1sc(Br)c(Cl)c1F` (stereo not drawn) [1.0425]: 3.38^[a].
The same measure for `CCOC(=O)C1(NC(=O)c2sc(Br)c(Cl)c2F)CC1` [1.0426]: 3.09^[a]; for `COC(=O)C(NC(=O)c1sc(Br)c(Cl)c1F)C1CC1` (stereo not drawn) [1.0427]: 3.38^[a].
Next, `CCOC(=O)C1(NC(=O)c2sc(Br)c(Cl)c2F)CCC1` [1.0428]: 3.73^[a]; `CCOC(=O)C(NC(=O)c1sc(Br)c(Cl)c1F)C(C)C` (stereo not drawn) [1.0429]: 4.38^[a].
With `COC(=O)C(CC(F)F)NC(=O)c1sc(Br)c(Cl)c1F` (stereo not drawn) [1.0430], the LogP is 3.21^[a].
Turning to `CCOC(=O)C(CC(C)C)NC(=O)c1sc(Br)c(Cl)c1F` (stereo not drawn) [1.0431], the LogP is 4.64^[a].
`CCOC(=O)C(CCSC)NC(=O)c1sc(Br)c(Cl)c1F` (stereo not drawn) [1.0432]: the LogP was 3.96^[a].
Take `CCOC(=O)C(Cc1ccccc1)NC(=O)c1sc(Br)c(Cl)c1F` (stereo not drawn) [1.0433]: the LogP was 4.48^[a].
For `COC(=O)C(CCSC)NC(=O)c1sc(Br)c(Br)c1F` (stereo not drawn) [1.0434], the LogP is 3.57^[a].
Next, `CCOC(=O)C(CC(C)C)NC(=O)c1cc(F)c(Br)s1` (stereo not drawn) [1.0435]: 3.80^[a]; `CCOC(=O)C(CC(C)C)NC(=O)c1cc(Br)c(Cl)s1` (stereo not drawn) [1.0436]: 4.23^[a]; `CCOC(=O)C(NC(=O)c1cc(Br)c(Cl)s1)C(C)C` (stereo not drawn) [1.0437]: 3.87^[a].

For the origin of these results see patent US12642270B2, “Substituted thiophene carboxamides, thiophene carboxylic acids and derivatives thereof” (Bayer Aktiengesellschaft, priority 2019, dated 2026).
